# What was measured:
# [1] = tested on: HeLa-CASP2−/−CASP3−/−GSDMD−/− (TKO) cells; experiment: Cell death in control HeLa triple knockout cells without active caspase-2; format: cell-based, human
# Description: Specific chemical compounds are powerful tools for dissecting target-related signaling mechanisms in biological contexts ([Beck et al., 2022]; [Zhang et al., 2012]). Prompted by this notion and possibly to identify a compound that could activate the PIDDosome, we designed a cell death-based high-throughput chemical screen in HeLa cells, in which a triple knockout of CASP2, CASP3, and GSDMD were constructed. CASP3 and GSDMD deficiency served as the background to minimize compound-induced nonspecific cytotoxicity and undesired pyroptosis. Using the triple knockout cells as the control, additional expression of exogenous caspase-2 allows the identification of compounds that can specifically activate the caspase-2-BID pathway and trigger apoptosis through caspase-7. […]
# Figure 3. […] The ratios of the cell viability between the two groups are calculated with 3 as a cutoff for positive compound hit selection. […] Processing of caspase-2, -3, and -7 was analyzed by immunoblotting. […] ATP-based cell viability in panels (B and D) is expressed as mean ± s.d. from three technical replicates. […]
# Drug-related Screening Library (25 × 384-well plate, more than 7,000 compounds) was used for the chemical screen in the TKO HeLa cells rescued with exogenous caspase-2 expression. […] After treatment for 12 h, the cell viability was measured by the ATP assay. […]
# [2] = tested on: caspase-2 interdomain linker mutants in HeLa TKO cells; experiment: Cell death and caspase-2 activation in HeLa TKO cells expressing caspase-2 linker mutants; format: cell-based
# Description: Figure 4. HUHS015 activates human caspase-2 directly through specific targeting of the interdomain linker of caspase-2. (A) The direct binding between HUHS015-36 and MBP-fused human caspase-2 pro-domain was detected by microscale thermophoresis (MST). MST profiles for raw binding signals and affinity (KD) measurement are shown. The calculated dissociation constant (KD) is expressed as means ± s.d. from two determinations. (B) Sequence alignment of the pro-domain (residues 1–169) of human and mouse caspase-2. CARD domain annotation is shown on top of the sequences. Identical residues are in red background and conserved ones are in red. Numbers of starting residues are indicated on the left. Different residues in the interdomain linker (residues 122–169) were highlighted with green color. (C) HUHS015 activates human but not mouse caspase-2. HeLa TKO cells rescued with human or mouse caspase-2 expression were treated with HUHS015 for the indicated time. ATP-based cell viability and immunoblotting detecting caspase-2 processing are shown. […] ATP-based cell viability in panels (C–E) is expressed as mean ± s.d. from three technical replicates. […] TEXT PRINTED IN THE PICTURE: (A) HUHS015-36: MBP-CASP2(32–165) vs. HUHS015-36: KD (μmol/L): 22.05 ± 6.151; MBP vs. HUHS015-36: KD (μmol/L): Not detected […]
smiles,measurement,setting,value
Cc1ccc2nc(-n3nc(C)c(Cc4ccccc4)c3O)[nH]c2c1 [HUHS015],cell death,[1]; TKO cells expressing protease-deficient caspase-2 C320A,no cell death
same,"cell death selectivity, caspase-2-expressing vs control TKO cells","[1]; chemical screen, 12 h",robust cell death selectively in caspase-2-expressing but not the control triple knockout cells
same,caspase-2 activation and cell death,"[2]; human caspase-2 with L150 and Y151 replaced by mouse P150 and H151, 5 h",abolished
same,caspase-2 activation and apoptosis,"[2]; mouse caspase-2 with P150 and H151 replaced by L150 and Y151, 5 h",capable of being activated

# Reference: PMC11637483, “Dissecting caspase-2-mediated cell death: from intrinsic PIDDosome activation to chemical modulation” (Protein & Cell, 2024)
